Results taken from patent publication US20090075974A1, “AGENT FOR PROPHYLAXIS AND TREATMENT OF PANCREATITIS” (UMN Pharma Inc., priority 2005, published 2009).
Like-named read-outs stand apart in the source and are kept apart here.

How the values were obtained:
[1] = target: T1, 5-HT2C receptor (Homo sapiens, UniProt P28335); details: literature values, cited from earlier work
T1 construct: expressed in transfected cells; host or cells: HEK-293 (membrane fractions)
T1 sequence (P28335 33-458): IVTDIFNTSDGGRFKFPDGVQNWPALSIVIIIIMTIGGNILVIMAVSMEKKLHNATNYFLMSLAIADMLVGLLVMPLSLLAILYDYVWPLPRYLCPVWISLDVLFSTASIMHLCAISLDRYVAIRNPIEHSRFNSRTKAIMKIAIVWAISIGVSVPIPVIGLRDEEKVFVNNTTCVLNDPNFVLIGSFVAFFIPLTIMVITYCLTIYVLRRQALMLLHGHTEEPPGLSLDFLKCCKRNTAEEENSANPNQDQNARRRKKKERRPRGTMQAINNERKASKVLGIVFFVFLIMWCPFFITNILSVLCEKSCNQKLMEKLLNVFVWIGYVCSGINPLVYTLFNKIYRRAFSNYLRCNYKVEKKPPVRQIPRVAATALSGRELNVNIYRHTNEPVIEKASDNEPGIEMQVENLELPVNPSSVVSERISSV

[2] = system: mouse with cerulein-induced pancreatitis; experiment: Cerulein-induced acute pancreatitis in mouse: amylase and lipase activity in plasma; assay type: in vivo; details: for inhibition rate of amylase activity: Example 2, FIG. 2, drug 3.2 mg/Kg; for effect on amylase in blood of mice administered with cerulein / effect on lipase in blood of mice administered with cerulein: Example 1, FIG. 1, under the dorsal skin 15 min before first cerulein, ketanserin 3.2 mg/Kg
Method: Receptor subtypes involved in the onset of pancreatitis were examined with the use of antagonists of 5-HT2A receptor, 5-HT2B receptor, and 5-HT2C receptor. A mouse having acute pancreatitis induced by excessive administration of cerulein was used as an animal model. This model is not affected by food consumption, which is different from CDE pancreatitis, and thus it is possible to obtain constant pathologic features and analyze data more accurately.
An aqueous solution of cerulein (0.05 mg/Kg) was administered to a five-week-old mouse every one hour five times by hypodermic injection. Each 5-HT2 antagonist suspended in a solvent (0.5% methylcellulose in saline) was administered under the dorsal skin 15 minutes before the first administration of cerulein. […] Further, only the solvent was administered to the control group (group administered with cerulein alone) under the dorsal skin. One hour after the final administration, blood was collected, and amylase activity and lipase activity in the plasma were determined.
Effects of various 5-HT2A antagonists on amylase activity and lipase activity in plasma of cerulein-induced pancreatic mice were examined. […] Then the amylase activity and the lipase activity in plasma were determined.
Effects of various 5-HT2 antagonists on amylase activity and lipase activity in plasma of cerulein-induced pancreatic mice were examined. […] Then the amylase activity and the lipase activity in plasma were determined.

[3] = target: T2, 5-HT2B receptor (Homo sapiens, UniProt P41595); details: literature values, cited from earlier work
T2 construct: expressed in transfected cells; host or cells: CHO-K1 (membrane fractions)
T2 sequence (P41595 whole entry): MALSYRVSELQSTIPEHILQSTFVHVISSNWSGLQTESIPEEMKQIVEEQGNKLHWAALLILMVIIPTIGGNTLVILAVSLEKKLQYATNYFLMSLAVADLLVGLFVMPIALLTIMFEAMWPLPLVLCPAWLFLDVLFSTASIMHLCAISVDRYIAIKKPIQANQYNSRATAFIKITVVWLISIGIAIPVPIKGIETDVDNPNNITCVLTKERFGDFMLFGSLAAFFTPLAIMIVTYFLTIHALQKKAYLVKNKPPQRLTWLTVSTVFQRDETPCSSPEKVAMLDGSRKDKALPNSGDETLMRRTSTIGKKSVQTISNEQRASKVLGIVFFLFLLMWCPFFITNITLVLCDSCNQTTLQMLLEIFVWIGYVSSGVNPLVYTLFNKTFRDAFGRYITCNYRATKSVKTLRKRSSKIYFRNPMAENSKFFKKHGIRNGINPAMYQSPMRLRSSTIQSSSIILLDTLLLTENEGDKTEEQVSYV

[4] = plasma, cerulein-induced pancreatitis mouse
[5] = Bonhaus et al. (1995), second block of Table 1

| SMILES | inhibition rate of amylase activity [2, 4] | effect on amylase in blood of mice administered with cerulein [2] | effect on lipase in blood of mice administered with cerulein [2] | other results |
| --- | --- | --- | --- | --- |
| O=C1NCN(c2ccccc2)C12CCN(CCCOc1ccc(F)cc1)CC2 [AMI-193] | 17% | – | – | 5-HT2C pKi ± SEM ([1]; Knight et al. (2004)): 5.81 ± 0.16 |
| Cc1nc2n(c(=O)c1CCN1CCC(c3noc4cc(F)ccc34)CC1)CCCC2 [risperidone] | 52% | – | – | – |
| OC(c1ccccc1)C1CCN(CCc2ccccc2)CC1 (stereo not drawn) [MDL11939] | −4% | – | – | – |
| O=C(CCCN1CCC2(CC1)C(=O)NCN2c1ccccc1)c1ccc(F)cc1 [spiperone] | – | – | – | 5-HT2C pKi ± SEM [1, 5]: <6.00 |
| Cc1cc2c(cc1Cl)N(C(=O)Nc1ccc(Oc3cccnc3C)nc1)CC2 [SB242084] | – | didn't show any effect | didn't show any effect | – |
| CN1C[C@H](CNC(=O)OCc2ccccc2)C[C@@H]2c3cccc4c3c(cn4C)C[C@H]21 [Metergoline, metergoline] | – | – | – | inhibition rate of amylase ([2]; Example 3, FIG. 3, drug 3.2 mg/kg, plasma, cerulein-induced pancreatitis mouse): 30% |
| Cc1cc(NC(=O)Nc2ccc3c(ccn3C)c2)sn1 [SB204741] | – | didn't show any effect | didn't show any effect | 5-HT2B pKi ± SEM [3, 5]: 7.1 ± 0.08; 5-HT2B pKi ± SEM ([3]; Knight et al. (2004)): 6.90 ± 0.27 |
| O=C(c1ccc(F)cc1)C1CCN(CCn2c(=O)[nH]c3ccccc3c2=O)CC1 [ketanserin] | 37% | significantly decreased | significantly decreased | – |
